Laboratory results as given in patent US6365593B2, “Methylxanthines in the diagnosis and treatment of autistic disorder” (Repligen Corporation, priority 2000, dated 2002).
“Also recorded” adds a separate entry of the source.

What was measured:
[1] = tested on: 7-MX levels in the first morning urine; test: 7-MX levels in first morning urine of autistic subjects after secretin infusion (time course); format: in vivo, human
Protocol: Urine samples from individuals, e.g., children, suspected of having autistic disorder are collected in 50 ml polypropylene centrifuge tubes and stored at a temperature below freezing, e.g., at −20° C. The samples are later thawed and centrifuged before pre-purification by solid phase extraction using e.g., SEP-PAK™ columns. The following is a suitable protocol for SEP-PAK™ extraction of one urine sample:
Suitable HPLC conditions to detect and analyze the methylxanthines and xanthines in a urine sample are as follows:
Samples are normalized for urinary output and variations in dilution using a standard creatinine assay. A portion of each sample is assayed to determine the creatinine content. Each sample is then diluted with water to achieve a standard creatinine concentration of […] in 100 μl of the sample.
Once the urine samples are properly pretreated, the level of methylxanthine, e.g., 7-MX, or xanthine is determined. […]
Samples of urine from autistic and non-autistic subjects were collected and analyzed for the presence of various metabolites before and after secretin treatment. Urine samples were analyzed by HPLC with a 4.5×100 mm C18 column detected at 215 nm and 280 nm. […]
The 7-MX levels in the first morning urine of autistic subjects after secretin treatment were monitored. […]

[2] = tested on: symptoms of autistic disorder; details: individuals diagnosed with autistic disorder; cited from earlier work
7-MX level in urine = test: Double blind study: urinary 7-MX in autistic children after secretin or placebo; format: in vivo, human; details: groups 0 and 1, basal vs one week after secretin
Text: The urine samples of a double blind study on the effects of secretin on autistic children were available for further investigation on the changes of 7-MX after secretin treatment. Participants were divided into two groups. One group received secretin first, then placebo, and the other group received placebo first, then secretin. Three samples were collected for each subject: (i) basal urine, (ii) one week after secretin, (iii) one week after placebo. The changes of 7-MX level are shown in FIG. 8 (changes of 7-MX levels in double blind group “0”) and FIG. 9 (changes of 7-MX in double blind group “1”) for the two groups of patients. […] Only one subject in group 1 was an exception, where the basal 7-MX level was 10 times higher than the average.

secretin: a hormone shown to improve symptoms of autistic disorder; stimulates secretion of pancreatic bicarbonate fluid
change of 7-MX level (HPLC peak RT5.5) in urine after secretin treatment ([1]; autistic children, first morning urine, after secretin infusion): increase in size after secretin treatment in some children; also recorded: increases during the first week after secretin infusion and then decreases; also recorded: increased, and then decreased after about one week | dose dependence of urinary 7-MX level after secretin ([1]; one autistic child, first treatment about 4 μg, second about 15 μg secretin): a higher dose of secretin would lead to a higher level of 7-MX in the urine | effect on symptoms of autistic disorder [2]: improve symptoms | change of urinary 7-MX level one week after secretin (7-MX level in urine): increased or stayed at the same level, but did not decrease; also recorded: increased the excretion of 7-MX and other methylxanthines
